What was measured:
Rat dopaminergic neurons = assay: Dopaminergic neuron survival with MPP+ intoxication; type: cell-based; settings: MPP+ 16 μM, 48 hours
Description: Rat dopaminergic neurons were cultured as described by Schinelli et al., 1988. Briefly pregnant female rats of 15 days gestation were killed by cervical dislocation (Rats Wistar; Janvier) and the fetuses removed from the uterus. The embryonic midbrains were removed and placed in ice-cold medium of Leibovitz (L15; Invitrogen) containing 1% of Penicillin-Streptomycin (PS; Invitrogen) and 1% of bovine serum albumin (BSA; Sigma). Only the ventral portions of the mesencephalic flexure were used for the cell preparations as this is the region of the developing brain rich in dopaminergic neurons.
The midbrains were dissociated by trypsinisation for 20 min at 37° C. (10% of trypsin EDTA 10×; Invitrogen) diluted in PBS without calcium and magnesium. The reaction was stopped by the addition of Dulbecco's modified Eagle's medium (DMEM; Invitrogen) containing DNAase I grade II (0.1 mg/ml; Roche Diagnostic;) and 10% of fetal calf serum (FCS; Invitrogen). Cells were then mechanically dissociated by 3 passages through a 10 ml pipette. Cells were then centrifuged at 180×g for 10 min at room temperature on a layer of BSA (3.5%) in L15 medium. The supernatant was discarded and the cells of pellet were re-suspended in a defined culture medium consisting of Neurobasal (Invitrogen) supplemented with B27 (2%; Invitrogen), L-glutamine (0.2 mM; Invitrogen) and 1% of PS solution. Viable cells were counted in a Neubauer cytometer using the trypan blue exclusion test.
The cells were seeded at a density of 69 000 cells/well in 96 well-plates (wells were pre-coated with poly-L-lysine (10 μg/ml; Sigma)) and were cultured at 37° C. in a humidified air (95%)/CO2 (5%) atmosphere. Half of the medium was changed every 2 days with fresh medium. In these conditions, after 5 days of culture, astrocytes were present in the culture and release growth factor allowing neurons differentiation. Three to five percent of the neuronal cell population were dopaminergic neurons.
On day 6, the medium was removed and fresh medium was added with or without MPP^+ at 16 μM and with or without test substance. After 48 hours of intoxication (day 8 of culture), the cells were fixed with PFA 4%. Dopaminergic neurons were labeled by a monoclonal anti-tyrosine hydroxylase (TH) antibody (Sigma). This antibody labels the neurites and cell bodies of dopaminergic neurons. […] For each condition, 2×10 pictures per well were taken using InCell Analyzer™ 1000 (Amersham Biosciences) with 10× magnification. All the images were taken in the same conditions.
Analysis of the neurite length and number of neurons labeled with anti tyrosine hydroxylase (TH) antibodies with or without MPP+ intoxication was carried out using InCell Analyzer™ 1000 3.2.Workstation software. Dopaminergic neurons and total length neurites were counted on the 10 pictures (12 analyses by culture condition).

RET via GFRα = target: T1, RET via GFRα (UniProt P07949+Q62997); assay: RET phosphorylation assay by immunoprecipitation and Western blotting (FIG. 4); type: cell-based; settings: FIG. 4 lanes; active / inactive
T1 construct: Full-length flag-tagged rat Gfrα1 cDNA; FLAG; expressed in transfected cells; host or cells: αLUC cells: MG87RET murine fibroblasts stably transfected with GFRα1 plasmid, Gal4-Luc and Gal4-Elk
T1 sequence (Q62997 25-430 limits assumed): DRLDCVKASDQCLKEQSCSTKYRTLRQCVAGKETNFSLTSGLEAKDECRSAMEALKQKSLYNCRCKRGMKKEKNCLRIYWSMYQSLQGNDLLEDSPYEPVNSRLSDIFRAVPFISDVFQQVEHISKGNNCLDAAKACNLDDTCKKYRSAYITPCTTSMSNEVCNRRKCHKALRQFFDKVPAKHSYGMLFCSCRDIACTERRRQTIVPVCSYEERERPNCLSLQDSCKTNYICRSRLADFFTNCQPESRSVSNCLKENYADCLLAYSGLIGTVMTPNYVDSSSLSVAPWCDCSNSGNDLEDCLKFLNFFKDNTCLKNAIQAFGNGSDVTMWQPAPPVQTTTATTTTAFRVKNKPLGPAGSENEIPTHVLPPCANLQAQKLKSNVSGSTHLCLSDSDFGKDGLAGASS
T1 sequence (P07949 29-1114): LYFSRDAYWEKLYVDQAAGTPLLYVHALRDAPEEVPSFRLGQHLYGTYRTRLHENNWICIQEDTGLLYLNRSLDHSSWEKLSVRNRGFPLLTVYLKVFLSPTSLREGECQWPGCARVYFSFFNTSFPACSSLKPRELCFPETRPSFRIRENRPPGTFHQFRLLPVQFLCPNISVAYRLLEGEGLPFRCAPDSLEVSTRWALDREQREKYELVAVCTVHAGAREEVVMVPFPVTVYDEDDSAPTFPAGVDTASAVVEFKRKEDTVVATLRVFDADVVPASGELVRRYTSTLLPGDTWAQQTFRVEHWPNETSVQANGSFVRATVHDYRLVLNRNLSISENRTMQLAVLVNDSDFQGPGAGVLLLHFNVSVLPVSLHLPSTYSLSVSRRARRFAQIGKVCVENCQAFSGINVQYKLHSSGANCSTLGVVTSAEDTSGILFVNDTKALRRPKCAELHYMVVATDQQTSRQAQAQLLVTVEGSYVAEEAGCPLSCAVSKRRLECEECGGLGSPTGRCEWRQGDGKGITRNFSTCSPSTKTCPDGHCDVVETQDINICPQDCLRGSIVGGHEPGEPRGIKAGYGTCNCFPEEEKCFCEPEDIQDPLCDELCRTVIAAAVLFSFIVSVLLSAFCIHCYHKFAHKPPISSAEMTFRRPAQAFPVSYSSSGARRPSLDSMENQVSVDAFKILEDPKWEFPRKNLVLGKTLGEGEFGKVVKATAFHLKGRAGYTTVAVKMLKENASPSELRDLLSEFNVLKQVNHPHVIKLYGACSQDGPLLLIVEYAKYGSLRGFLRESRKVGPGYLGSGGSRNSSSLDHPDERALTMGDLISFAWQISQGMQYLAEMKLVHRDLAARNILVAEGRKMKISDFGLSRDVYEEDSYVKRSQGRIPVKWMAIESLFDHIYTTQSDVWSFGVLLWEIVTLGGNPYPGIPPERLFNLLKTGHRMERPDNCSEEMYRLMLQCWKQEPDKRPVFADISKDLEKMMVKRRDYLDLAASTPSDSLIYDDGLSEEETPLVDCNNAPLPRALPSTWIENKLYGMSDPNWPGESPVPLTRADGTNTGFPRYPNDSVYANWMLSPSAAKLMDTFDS
Description: αLUC and NOα cells plated on 35 mm tissue culture dishes were starved for 4 hours in serum-free DMEM and stimulated with 500 ng/ml of PSPN or 100 ng/ml of GDNF (positive control) for 15 min. […] The membranes were washed 3 times for 5 min in TBS-T and incubated in the 1:3000 solution of secondary anti-mouse antibodies conjugated with HRP (DAKO) diluted in TBS-T containing 3% nonfat dry milk for 45 min at room temperature. Membranes were washed with TBS-T for 5×10 min. Stained bands were visualized with ECL reagent (Pierce) using LAS3000 imaging program. […] We used secondary anti-goat antibodies conjugated with HRP (1:1500, DAKO) to detect C-20.

## CCN(CC)S(=O)(=O)c1ccc(OC)c(N2CCN(C(=O)c3ccc(F)cc3C(F)(F)F)CC2)c1 [319H6]
Rat dopaminergic neurons; 0.1 μM
  % Cytoprotection vs controls: 9%
  % TH+ Neurons: 59%
Rat dopaminergic neurons; 1 μM
  % Cytoprotection vs controls: 33%
  % TH+ Neurons: 70%
Rat dopaminergic neurons; 10 μM
  % Cytoprotection vs controls: 36%
  % TH+ Neurons: 71%

## CCN(CC)CCCC(C)Nc1cc(/C=C/c2ccc(Cl)cc2)nc2ccc(N(C)C)cc12 (centres unmarked) [compound 219902]
RET via GFRα
  RET activation (phosphotyrosine Western blot of immunoprecipitated RET): active

## OCCNCCNc1c2ccccc2nc2cc(Cl)ccc12 [compound 13005]
RET via GFRα
  RET activation (phosphotyrosine Western blot of immunoprecipitated RET): inactive

## CCN(CC)CCCC(C)Nc1ccnc2cc(Cl)ccc12 (centres unmarked) [chloroquine]
RET via GFRα
  RET activation (phosphotyrosine Western blot of immunoprecipitated RET): inactive

## CC(CCCN(C)Cc1ccccc1)Nc1ccnc2cc(Cl)ccc12 (centres unmarked) [compound 143511]
RET via GFRα
  RET activation (phosphotyrosine Western blot of immunoprecipitated RET): active

## CCN(CC)CCCCCCNc1ccnc2cc(Cl)ccc12 [compound 108]
RET via GFRα
  RET activation (phosphotyrosine Western blot of immunoprecipitated RET): inactive

## Clc1ccc2c(NCCCCCCNc3ccnc4cc(Cl)ccc34)ccnc2c1 [compound 349051]
RET via GFRα
  RET activation (phosphotyrosine Western blot of immunoprecipitated RET): inactive

B1: BDNF: native brain-derived neurotrophic factor, comparator in the neuron survival assay (protein, UniProt P23560 19-247, looked up)
Neurotrophic factor BDNF …: APMKEANIRGQGGLAYPGVRTHGTLESVNGPKAGSRGLTSLADTFEHVIEELLDEDQKVRPNEENNKDADLYTSRVMLSSQVPLEPPLLFLLEEYKNYLDAANMSMRVRRHSDPARRGELSVCDSISEWVTAADKKTAVDMSGGTVTVLEKVPVSKGQLKQYFYETKCNPMGYTKEGCRGIDKRHWNSQCRTTQSYVRALTMDSKKRIGWRFIRIDTSCVCTLTIKRGR
Rat dopaminergic neurons; 10 ng/mL
  % Cytoprotection vs controls: 49%
  % TH+ Neurons: 77%
